Test results from patent publication US5223482A, “Recombinant Alzheimer's protease inhibitory amyloid protein and method of use” (Scios Nova Inc., priority 1989, dated 1993).
Where no end group is shown, it is not given here.

Experiments:
Assay type in all cases: biochemical
[1] = target: chymotrypsin; test: Kinetics of inhibition (Ki) of the protease inhibitor for chymotrypsin
Procedure: (§1) The analogs of the present protease inhibitors are constructed from oligonucleotides containing the specific codons encoding the desired amino acid at this location, using site-specific mutagenesis techniques as are known in the art. The desired activities of the analogs thus constructed are assayed using the appropriate enzyme, for example, either trypsin, chymotrypsin or elastase as the standard in one of the respective assays using, for example, the trypsin or chymotrypsin assays described in Tan, N. H. Biochem (1977) 16:1531-1541 and the elastase assays Barrett, A. J. (1981) in Methods in Enzymology vol. 80, L. Lorand ed., Academic Press, New York. The activity of the analogs may be compared with that of the natural protease inhibitor of the invention.

[2] = target: trypsin; test: Kinetics of inhibition (Ki) of the protease inhibitor for trypsin
Procedure: as §1

[3] = test system: trypsin; test: Trypsin inhibition assay (hydrolysis of N-benzoyl-D-arginine-p-nitroaniline, release of pNA); conditions: HPLC peaks of the trypsin affinity column eluate
Procedure: All 8 oligonucleotides encoding either the phoA or ompA fusions were mixed together and treated with ligase. […] The ligated constructs were then ligated into the NdeI-HindIII sites of the vector pTRP233. The ligated vectors were transfected into E. coli strain MC1061 and Amp^R colonies selected. […] Miniprep DNA was used to transfect strains W3110 and JE5505. Small scale cultures of each of the three strains were grown and induced with IAA overnight. Culture supernatants were examined for trypsin inhibitory acitvity. Trypsin is assayed for its ability to hydrolyze the synthetic substrate N-benzoyl-D-arginine-p-nitroaniline to release p-nitroaniline (pNA). The release of pNA as a function of time is easily monitored in a spectrophotomer and can be quantitated to measure trypsin activity. The inhibitor is detected in this assay by virtue of its ability to bind to trypsin and prevent hydrolysis of the substrate by trypsin. Inhibitory activity wad detected in the culture medium for both ompA and phoA constructs in JE5505 but not W3110 or MC1601. Expression levels appeared to be higher with the phoA construct and so only this construct was used for subsequent experiments.

| Ki [1] [nM] | Ki [2] [nM] | Substance | activity in the trypsin inhibition assay [3] |
| --- | --- | --- | --- |
| 8.5 | 3 | natural protease inhibitor: 57 amino acid Kunitz-type protease inhibitor, residues 289 through 345 of the λAPCP168i4 β-amyloid-related protein (EVCSEQAETGPCRAMISRWYFDVTEGKCAPFFYGGCGGNRNNFDTEEYCMAVCGSAM; Kunitz inhibitor domain; UniProt P05067 289-345, looked up, fragment) | – |
| – | – | peak 4: major HPLC peak of the purified inhibitor; mass consistent with full length A4i with 3 disulfide bridges (EVCSEQAETGPCRAMISRWYFDVTEGKCAPFFYGGCGGNRNNFDTEEYCMAVCGSAM; disulfide (positions not given here); UniProt P05067 289-345, looked up, fragment) | active |
